Data published in patent US12409157B2, “Mitofusin activators and methods of use thereof” (Mitochondria Emotion, Inc., priority 2019, dated 2025).
Entries after “also recorded” stand apart in the source; their conditions may differ.

Columns and labels:
mitofusin [1] = conditions: Rocha et al 2018 Science 360:336; read-out: EC50 as mitofusin activator; cited from earlier work
MFN2 = target: T1, MFN2 (Homo sapiens, UniProt O95140); assay: conformational opening of mitofusin 2; assay type: biochemical; conditions: FIG. 6B
T1 sequence (O95140 1-757): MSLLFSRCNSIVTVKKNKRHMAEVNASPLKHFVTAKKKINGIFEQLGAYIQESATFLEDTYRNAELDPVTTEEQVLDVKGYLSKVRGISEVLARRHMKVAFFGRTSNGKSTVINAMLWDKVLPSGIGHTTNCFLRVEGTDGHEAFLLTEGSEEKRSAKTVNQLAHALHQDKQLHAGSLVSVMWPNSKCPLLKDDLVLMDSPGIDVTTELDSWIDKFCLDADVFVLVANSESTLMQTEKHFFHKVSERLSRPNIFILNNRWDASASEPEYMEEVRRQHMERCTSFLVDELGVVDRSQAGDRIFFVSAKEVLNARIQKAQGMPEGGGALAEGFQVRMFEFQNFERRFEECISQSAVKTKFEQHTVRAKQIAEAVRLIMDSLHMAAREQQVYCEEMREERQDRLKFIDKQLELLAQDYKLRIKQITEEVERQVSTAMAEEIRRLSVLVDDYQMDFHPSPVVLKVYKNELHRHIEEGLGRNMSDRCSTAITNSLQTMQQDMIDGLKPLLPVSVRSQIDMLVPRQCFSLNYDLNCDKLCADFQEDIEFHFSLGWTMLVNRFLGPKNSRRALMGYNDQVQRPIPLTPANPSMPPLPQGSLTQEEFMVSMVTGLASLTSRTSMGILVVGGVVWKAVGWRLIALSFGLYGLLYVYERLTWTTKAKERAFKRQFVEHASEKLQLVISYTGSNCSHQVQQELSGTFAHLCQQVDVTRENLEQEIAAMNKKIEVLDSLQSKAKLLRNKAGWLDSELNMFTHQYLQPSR

Plasma stability, human = assay type: in vitro ADME; conditions: H
Plasma stability, mouse = assay type: in vitro ADME; conditions: M
mitofusin [2] = test system: T2, mitofusin; assay: mitofusin-dependent mitochondrial elongation (aspect ratio), functional screening; assay type: cell-based, mouse; conditions: DMSO vehicle, Reg C positive control; FIGS. 2-5
T2 construct: EC50 Mito Elongation; other: benchmark <30; unit given as nm; results of functional screening (mitochondrial elongation); other: DMSO vehicle, Reg C positive control

Structure (SMILES)	EC50 (mitofusin [1])	results of functional screening (mitochondrial elongation) (mitofusin [2])	further results
CC1CCCCC1NC(=O)NCCSCc1ccccc1 (stereo not shown) [compound A, 1-[2-(benzylsulfanyl)ethyl]-3-(2-methylcyclohexyl)urea]	~0.03 µM	–	–
O=C(CCCCCc1ccccc1)NC1CCC(O)CC1 (stereo not shown) [MiM111, N-(4-hydroxycyclohexyl)-6-phenylhexanamide]	–	–	conformational opening of MFN2 (MFN2): induces an open conformation of its target MFN2; also recorded: conformational opening of MFN 2 mimics that of an agonist peptide; Plasma Stability (120 min.) (Plasma stability, human): 87%; Plasma Stability (120 min.) (Plasma stability, mouse): 100%
CC(Sc1nnc(C2CC2)n1-c1ccccc1)C(=O)Nc1sc2c(c1C(N)=O)CCC2 (stereo not shown) [compound B, 2-{2-[(5-cyclopropyl-4-phenyl-4H-1,2,4-triazol-3-yl)sulfanyl]propanamido}-4H,5H,6H-cyclopenta[b]thiophene-3-carboxamide]	~0.01 µM	–	–
CC1CC(O)CCC1NC(=O)NCCCCc1ccccc1 (stereo not shown) [MiM5, 1-(4-Hydroxy-2-methylcyclohexyl)-3-(4-phenylbutyl)urea]	–	highly active	–
O=C(CCCCCc1ccccn1)NC1CCC(O)CC1 (stereo not shown) [MiM111 N1, (4-Hydroxycyclohexyl)-6-(pyridin-2-yl)hexanamide]	–	All compounds except MiM111 N1 were highly active	–
